Measurements reported in patent publication US8912169B2, “Beta-lactamase inhibitors” (VenatoRx Pharmaceuticals, Inc., priority 2012, dated 2014).

Key:
Type in all cases: biochemical
OXA-1 = molecular target: T1, OXA-1 (Escherichia coli, UniProt P13661); assay: β-lactamase enzyme inhibition, OXA-1; details: substrate Nitrocefin 100 μM, 486 nm; read-out: Class D OXA-1 IC50
T1 construct: made in house; host or cells: E. coli BL21(DE3)
Experimental: (§1) For SHV-5, Kpc-2, p99AmpC and OXA-1 β-lactamases, E. coli BL21(DE3) bacterial cells carrying expression plasmids (expressed as native untagged proteins) for the individual β-lactamases were grown in 1 L of Superbroth (Teknova Inc. Hollister, Calif.) supplemented with 100 μg/mlkanamycin selection and 1×5052 (0.5% glycerol, 0.05% glucose and 0.2% α-lactose) at 35° C. for 18-20 hours. Cells were harvested by centrifugation (4,000×g, 4° C., 20 min), resuspended in 50 ml of 10 mM HEPES pH 7.5 ( 1/20 of the initial volume). The cells were lysed by sonication (5 pulses of 45 seconds) at 45 W on ice. The lysates were clarified by centrifugation at 10,000×g for 40 minutes at 4° C. Samples were diluted 5-fold in 50 mM sodium acetate pH 5.0, stored overnight at 4° C., after which they were centrifuged at 10,000×g for 30 minutes to clarify, and filtered through 0.45 μm filters. The samples were loaded onto a 5 ml Capto S sepharose cation exchange column (GE Healthcare) pre-equilibrated with 50 mM sodium acetate pH 5.0. The column was washed with 5 column volumes of 50 mM sodium acetate pH 5.0 to wash out unbound protein and a linear gradient of NaCl (0 to 500 mM) was used to elute the protein (over 16 CV) from the column. Fractions were assayed for β-lactamase activity using Centa (Calbiochem, Gibbstown, N.J.) or Nitrocefin (EMD Millipore chemicals, Darmstadt, Germany) as a reporter β-lactamase substrate for activity in the isolated fractions. Active fractions were pooled, concentrated and further purified by gel filtration chromatography on a Superdex 75 prep grade gel filtration column (GE Healthcare, Piscataway, N.J.) pre-equilibrated in 50 mM Hepes pH 7.5, 150 mM NaCl. Active fractions were pooled concentrated, quantitated by BCA protein determination (Thermo Scientific, Rockford, Ill.), dialyzed into PBS and frozen at −80° C. in 20% glycerol until use.
(§2) An equal volume of diluted enzyme stock was added, and the plates were incubated at 37° C. for 15 min. Nitrocefin was used as substrate for p99 AmpC, VIM-2 and OXA-1 and dispensed into each well at a final concentration of 100 μM. Absorbance at 486 nm was immediately monitored for 10 min using a Biotek Powerwave XS2 microplate spectrophotometer using the GENS software package (Biotek Instruments, Winooski Vt.). In an analogous fashion, imipenem was used as substrate for Kpc-2 and Cefotaxime was used for SHV-5, while changes in absorbance upon hydrolysis of the β-lactam ring were monitored at 300 nm and 260 nm respectively in UV-transparent 96-well microtiter assay plates. Maximum rates of hydrolysis were compared to those in control wells (without inhibitors), and percentages of enzyme inhibition were calculated for each concentration of inhibitor. The concentration of inhibitor needed to reduce the initial rate of hydrolysis of substrate by 50% (IC50) was calculated as the residual activity of β-lactamase at 486 nm using GraFit version 7 kinetics software package (Erithacus Software, Surrey, UK).
(§3) Using the methodology described above, examples of the current invention were evaluated for their ability to inhibit β-lactamase enzymes from all four Ambler classifications (A through D). […] NT=Not tested.

VIM-2 = molecular target: T2, VIM-2 (Escherichia coli, UniProt Q5U7L7); assay: β-lactamase enzyme inhibition, VIM-2; details: substrate Nitrocefin 100 μM, 486 nm; read-out: Class B VIM-2 IC50
T2 construct: made in house; host or cells: E. coli BL21(DE3)
Experimental: For Vim-2 metallo β-lactamase, the procedure was identical with the following exceptions, first the protein was not pH adjusted to pH 5 with 50 mM sodium acetate, second, the chromatography step was changed to a 5 ml Q sepharose anion exchange column pre-equilibrated with 50 mM Hepes pH 7.5, and elution of the protein was achieved by a linear gradient of NaCl (0-600 mM). Finally, the VIM-2 purification required a second run (3rd step) on the Q sepharose anion exchange column to achieve acceptable purity (>90%).
as §2, §3

SHV-5 = molecular target: T3, SHV-5 (Klebsiella pneumoniae, UniProt P0A3M1); assay: β-lactamase enzyme inhibition, SHV-5
T3 construct: made in house; host or cells: E. coli BL21(DE3)
Experimental: as §1, §2, §3

p99 AmpC = molecular target: T4, p99 AmpC (Enterobacter cloacae, UniProt P05364); assay: β-lactamase enzyme inhibition, p99 AmpC
T4 construct: made in house; host or cells: E. coli BL21(DE3)
Experimental: as §1, §2, §3

KPC-2 = molecular target: T5, KPC-2 (Klebsiella pneumoniae, UniProt Q9F663); assay: β-lactamase enzyme inhibition, KPC-2; details: substrate imipenem, 300 nm; read-out: Class A KPC-2 IC50
T5 construct: made in house; host or cells: E. coli BL21(DE3)
Experimental: as §1, §2, §3

Question: What does the source list for `N=C(N)N[C@H]1CC[C@H](CCC(=O)N[C@H]2Cc3cccc(C(=O)O)c3OB2O)CC1` [Example 22, (R)-3-(3-(trans-4-guanidinocyclohexyl)propanamido)-2-hydroxy-3,4-dihydro-2H-benzo[e][1,2]oxaborinine-8-carboxylic acid]?
Answer: IC50 (OXA-1): < 0.1 µM; IC50 (VIM-2): 0.1 to 1 µM; IC50 (SHV-5): < 0.1 µM; IC50 (p99 AmpC): < 0.1 µM; IC50 (KPC-2): < 0.1 µM

Question: How did the IC50 (OXA-1) turn out when `O=C(C[C@H]1CC[C@H](NCc2nccs2)CC1)N[C@H]1Cc2cccc(C(=O)O)c2OB1O` [Example 39] was run?
Answer: < 0.1 µM

Question: And the IC50 (VIM-2)?
Answer: 1 to 10 µM

Question: What about the IC50 (SHV-5) of the same molecule?
Answer: < 0.1 µM

Question: What about the IC50 (p99 AmpC) of the same molecule?
Answer: < 0.1 µM

Question: And the IC50 (KPC-2)?
Answer: < 0.1 µM

Question: Which results are given for `NCCNC(=O)N[C@H]1CC[C@H](CC(=O)N[C@H]2Cc3cccc(C(=O)O)c3OB2O)CC1` [Example 59, (R)-3-(2-(trans-4-(3-(2-aminoethyl)ureido)cyclohexyl)acetamido)-2-hydroxy-3,4-dihydro-2H-benzo[e][1,2]oxaborinine-8-carboxylic acid]?
Answer: IC50 (OXA-1): < 0.1 µM; IC50 (VIM-2): 0.1 to 1 µM; IC50 (SHV-5): < 0.1 µM; IC50 (p99 AmpC): < 0.1 µM; IC50 (KPC-2): < 0.1 µM

Question: Which IC50 (OXA-1) does the source give for `NCCN[C@H]1CC[C@@H](CC(=O)N[C@H]2Cc3cccc(C(=O)O)c3OB2O)CC1` [Example 46, (R)-3-(2-(cis-4-(2-aminoethylamino)cyclohexyl)acetamido)-2-hydroxy-3,4-dihydro-2H-benzo[e][1,2]oxaborinine-8-carboxylic acid] here?
Answer: < 0.1 µM

Question: What about the IC50 (VIM-2) of the same molecule?
Answer: 0.1 to 1 µM

Question: And the IC50 (SHV-5)?
Answer: 0.1 to 1 µM

Question: And the IC50 (p99 AmpC)?
Answer: < 0.1 µM

Question: What about the IC50 (KPC-2) of the same molecule?
Answer: < 0.1 µM

Question: `N=C(N)N1CCC(CN[C@H]2CC[C@H](CC(=O)N[C@H]3Cc4cccc(C(=O)O)c4OB3O)CC2)CC1` [Example 34, (R)-3-(2-(trans-4-((1-carbamimidoylpiperidin-4-yl)methylamino)cyclohexyl)acetamido)-2-hydroxy-3,4-dihydro-2H-benzo[e][1,2]oxaborinine-8-carboxylic acid] was tested. Which IC50 (OXA-1) did it give?
Answer: < 0.1 µM

Question: What about the IC50 (VIM-2) of the same molecule?
Answer: 0.1 to 1 µM

Question: And the IC50 (SHV-5)?
Answer: < 0.1 µM

Question: What about the IC50 (p99 AmpC) of the same molecule?
Answer: < 0.1 µM

Question: What about the IC50 (KPC-2) of the same molecule?
Answer: < 0.1 µM

Question: How did the IC50 (OXA-1) turn out when `N=C(N)NCCN[C@H]1CC[C@H](CC(=O)N[C@H]2Cc3cccc(C(=O)O)c3OB2O)CC1` [Example 25, (R)-3-(2-(trans-4-(2-guanidinoethylamino)cyclohexyl)acetamido)-2-hydroxy-3,4-dihydro-2H-benzo[e][1,2]oxaborinine-8-carboxylic acid] was run?
Answer: < 0.1 µM

Question: And the IC50 (VIM-2)?
Answer: < 0.1 µM

Question: And the IC50 (SHV-5)?
Answer: < 0.1 µM

Question: What about the IC50 (p99 AmpC) of the same molecule?
Answer: < 0.1 µM

Question: What about the IC50 (KPC-2) of the same molecule?
Answer: < 0.1 µM

Question: Which IC50 (OXA-1) does the source give for `NCCCN[C@H]1CC[C@H](CC(=O)N[C@H]2Cc3cccc(C(=O)O)c3OB2O)CC1` [Example 60, (R)-3-(2-(trans-4-(3-aminopropylamino)cyclohexyl)acetamido)-2-hydroxy-3,4-dihydro-2H-benzo[e][1,2]oxaborinine-8-carboxylic acid] here?
Answer: < 0.1 µM

Question: What about the IC50 (VIM-2) of the same molecule?
Answer: < 0.1 µM

Question: And the IC50 (SHV-5)?
Answer: < 0.1 µM

Question: What about the IC50 (p99 AmpC) of the same molecule?
Answer: < 0.1 µM

Question: What about the IC50 (KPC-2) of the same molecule?
Answer: < 0.1 µM

Question: With `CS(=O)(=O)NCCN[C@H]1CC[C@H](CC(=O)N[C@H]2Cc3cccc(C(=O)O)c3OB2O)CC1` [Example 49, (R)-2-hydroxy-3-(2-(trans-4-(2-(methylsulfonamido)ethylamino)cyclohexyl)acetamido)-3,4-dihydro-2H-benzo[e][1,2]oxaborinine-8-carboxylic acid] as the molecule, how does the IC50 (OXA-1) read?
Answer: < 0.1 µM

Question: What about the IC50 (VIM-2) of the same molecule?
Answer: 0.1 to 1 µM

Question: And the IC50 (SHV-5)?
Answer: < 0.1 µM

Question: What about the IC50 (p99 AmpC) of the same molecule?
Answer: < 0.1 µM

Question: And the IC50 (KPC-2)?
Answer: < 0.1 µM

Question: With `O=C(C[C@H]1CC[C@H](NCCO)CC1)N[C@H]1Cc2cccc(C(=O)O)c2OB1O` [Example 26, (R)-2-hydroxy-3-(2-(trans-4-(2-hydroxyethylamino)cyclohexyl)acetamido)-3,4-dihydro-2H-benzo[e][1,2]oxaborinine-8-carboxylic acid] as the molecule, how does the IC50 (OXA-1) read?
Answer: 0.1 to 1 µM

Question: And the IC50 (VIM-2)?
Answer: 1 to 10 µM

Question: And the IC50 (SHV-5)?
Answer: < 0.1 µM

Question: And the IC50 (p99 AmpC)?
Answer: < 0.1 µM

Question: And the IC50 (KPC-2)?
Answer: < 0.1 µM
